Here are results for 79 compounds from the METLIN SMRT retention time set (Domingo-Almenara et al. 2019).

This data set can be described thus: gradient 5% acetonitrile 3 min, to 50% in 2 min, to 85% in 15 min, held 3 min, 100 µL/min. As to conditions: column: Zorbax Extend-C18 2.1 x 50 mm; eluents: water / acetonitrile, 0.1% formic acid. Put shortly:
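Values are retention times taken from adduct peaks that software picked and an analyst inspected. The pure standards were run as mixtures of ~100 molecules on HPLC linked to a quadrupole time-of-flight mass spectrometer, in positive and negative ionization mode. A Zorbax Extend-C18 column (2.1 × 50 mm, 1.8 μm) was used at 100 μL/min with water and acetonitrile, each including 0.1% formic acid.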
`O=S(=O)(c1ccc(F)cc1)N1CCc2nc(-c3ccc(Cl)cc3)ncc2C1` came in with an RP-LC retention time of 1170 s.
For `CCc1nnc(C2CCN(S(=O)(=O)c3cccnc3)CC2)s1`, the RP-LC retention time was 652 s.
As for `Cc1ccc(NC(=O)Nc2nccn(-c3ccc(Br)cc3)c2=O)cc1F`, the figure is 1080 s.
As for `CCC(=O)c1cn(CC(=O)NC(C)c2ccc3c(c2)OCCCO3)c2ccccc12` (centres undefined), the figure is 848 s; as for `COc1ccc(-c2cc(N3CCN(C(=O)c4ccc(C(C)(C)C)cc4)CC3)ncn2)cc1`, 795 s.
As for `Cc1cccc(Cl)c1S(=O)(=O)Nc1ccc2c(c1)CCC(=O)N2C`, the figure is 788 s.
Compound `CCc1ccc(S(=O)(=O)N2CCc3nc(CNC(=O)C4CCC4)n(C)c3C2)cc1` displayed an RP-LC retention time of 652 s.
As for `O=C(NCc1c(F)cccc1Cl)C(=O)c1c[nH]c2ccccc12`, the figure is 931 s; as for `CC(NC(=O)CCCn1c2ccccc2c2cnn(C)c(=O)c21)c1ccc2c(c1)OCCO2` (centres undefined), 842 s.
As for `COc1ccc(-c2cn3c(CC(=O)Nc4ccccc4)csc3n2)cc1OC`, the figure is 702 s; as for `Cc1cccc(NC(=O)C2CCN(S(=O)(=O)c3cc(C(=O)N4CCCC4)n(C)c3)CC2)n1`, 653 s.
As for `CN(C)c1nc2ncn3c(=O)n(CC(=O)Nc4ccccc4)nc3c2s1`, the figure is 670 s; as for `CCN(CC)C(=O)c1ccc2c(c1)nnn2CCNC(=O)Nc1ccc(Br)cc1`, 779 s.
With `O=C1CC(CNS(=O)(=O)c2cccc(C(F)(F)F)c2)CN1c1ccc(Cl)cc1` (centres undefined), the RP-LC retention time is 893 s.
As for `Oc1ccc2c(ccc3[nH]cnc32)c1`, the figure is 622 s; as for `O=C([C@H]1C[C@@H](F)CN1S(=O)(=O)c1ccc(F)c(Cl)c1)N1CCOCC1`, 731 s.
In turn, `O=C(NC1CC1)c1ccc(OCC2CCN(C(=O)Cc3cccs3)CC2)cc1` registered an RP-LC retention time of 780 s.
As for `CCN1C(=O)Cc2c(C)nc(-c3ccc(OC)cc3)nc21`, the figure is 880 s; as for `Cc1cc2[nH]c(C(=O)Nc3cc(F)c(F)cc3F)c(CN3CCOCC3)c2s1`, 737 s.
As for `O=S(=O)(c1ccccc1C(F)(F)F)N1CCC2(CCN(c3cccnc3)C2)C1` (centres undefined), the figure is 694 s; as for `CC(C)N1C(=O)Cc2ccccc2C1C(=O)NCc1ccco1` (centres undefined), 720 s; as for `CCn1cc(CCN2CCC(C(=O)Nc3ccc4c(c3)OCCO4)CC2)c2cccnc21`, 626 s.
As for `Cc1cc(F)ccc1NS(=O)(=O)c1c(C)sc(C)c1-c1cc(C(F)(F)F)on1`, the figure is 1200 s; as for `Cc1cc(C)c(C(=O)N2CCC(CC(=O)NCCCN3CCCC3)CC2)[nH]1`, 586 s.
`CCOC(=O)c1noc2ncnc(NCCc3ccc(C)cc3)c12` gave an RP-LC retention time of 1060 s.
`Cc1nc(-c2ccccn2)cc2nn(CC(=O)N3CCOCC3)c(=O)n12` gave an RP-LC retention time of 754 s.
`CCNC(=O)c1cc2cc(Cl)ccc2[nH]1`: the RP-LC retention time is 806 s.
As for `CCc1nn2c(CNC(=O)c3cc(C)cc(C)c3)c(-c3ccccc3)nc2s1`, the figure is 1030 s; as for `Cc1cnc(C(=O)NC2C[C@H]3CC[C@@H](C2)N3C(=O)Cc2c(C)noc2C)cn1` (some centres undefined), 611 s; as for `CCOc1ccc(-c2nc3ncccn3c2NCc2ccccc2OC)cc1OC`, 739 s.
As for `CCCNC(=O)C1CCCN(c2nc3ncn(CC(=O)NCc4ccc(OC)cc4)c(=O)c3s2)C1` (centres undefined), the figure is 680 s; as for `COCCC(=O)N1CCC(c2noc(C3CC3)n2)C1` (centres undefined), 627 s; as for `Cc1cc(=O)n(CC(=O)Nc2ccc3c(c2)OCO3)c(N2CCOCC2)n1`, 644 s.
As for `CCN1CCCn2cc(S(=O)(=O)NCc3cccc(F)c3)cc2C1=O`, the figure is 754 s; as for `Cc1cccc(-c2noc(-c3nn(CC(=O)NC4CCCCC4)c4ccccc34)n2)c1`, 1250 s.
The compound `O=C1COc2ccc(Cl)cc2N1Cc1nc(-c2ccc(OC(F)(F)F)cc2)no1` gave an RP-LC retention time of 1210 s.
As for `CCNC(=O)c1nc(C(=O)NC2CC2)cs1`, the figure is 631 s.
`COc1ccc(S(=O)Cc2ccc(C(=O)NCCN(C)C)o2)cc1` (centres undefined) yielded an RP-LC retention time of 530 s.
In turn, `COc1ccc(NS(=O)(=O)c2cc(-c3nc(C(C)(C)C)cs3)cs2)cc1Cl` displayed an RP-LC retention time of 1220 s.
In turn, `COc1ccc(-c2nc(Cn3ccn4nc(-c5ccccc5)cc4c3=O)c(C)o2)cc1` displayed an RP-LC retention time of 1100 s.
As for `C=CC(=O)Nc1cccc(Sc2nc(Nc3ccc(N4CCN(C)CC4)cc3)ncc2Cl)c1`, the figure is 754 s; as for `O=C(c1ccccn1)N1CCC(n2c(C3CCCC3)nc3cccnc32)C1` (centres undefined), 620 s.
As for `CCc1nc2cc(-c3noc(-c4ccco4)n3)ccc2o1`, the figure is 968 s; as for `O=C(Cn1cccc1-c1nc(-c2ccc3c(c2)OCO3)no1)Nc1ccc(F)c(F)c1`, 1100 s.
As for `COc1ccc(NC(C)=O)cc1NC(=O)C1CC(=O)N(c2n[nH]c3ccccc23)C1` (centres undefined), the figure is 626 s.
Take `CC1CCN(S(=O)(=O)c2ccc3nn(Cc4ccc(Cl)cc4)c(=O)n3c2)CC1`: the RP-LC retention time is 819 s.
As for `COc1cc(C(=O)NCCc2csc(-c3ccc(Cl)cc3)n2)c([N+](=O)[O-])cc1OC`, the figure is 895 s; as for `Cc1nn(-c2ccc(C(=O)N3CCN(C(=O)c4ccco4)CC3)cc2)c2c1C(=O)CC(C)(C)C2`, 712 s.
As for `CCn1cc(S(=O)(=O)NCCc2noc(-c3ccncc3)n2)cn1`, the RP-LC retention time stood at 645 s.
As for `O=C(c1ccsc1)N1CCN(c2cc(-c3cccnc3)[nH]n2)CC1`, the figure is 584 s; as for `COCCOC1CCN(S(=O)(=O)c2cccc(OC)c2)CC1`, 811 s.
As for `Cc1ccc(-n2c(=O)c3c(cc(C)n3C)n(CC(=O)Nc3ccccc3)c2=O)cc1`, the figure is 834 s; as for `COCCNC(=O)c1ccc2c(c1)CCCN2S(=O)(=O)c1ccc(Cl)cc1`, 885 s.
As for `CC1Oc2ccc(-c3csc(NC(=O)c4ccccc4)n3)cc2N(C)C1=O` (centres undefined), the figure is 970 s.
Turning to `Cc1nn(C(C)C(=O)NCCCN(C)C2CCCCC2)c(=O)c2c(C)n(-c3ccccc3)nc12` (centres undefined), the RP-LC retention time is 675 s.
As for `Cc1cc(C(=O)Nc2cnc(N3CCCCC3)nc2)no1`, the figure is 845 s; as for `O=C(NCc1cccnc1)C1CCCN(c2ncnc3c2oc2ccccc23)C1` (centres undefined), 576 s; as for `CCOCCCNC(=O)C1CCN(c2cc(Sc3cc(C)ccc3C)ncn2)CC1`, 775 s.
As for `O=C(Cc1cccs1)NCc1cccnc1Oc1ccccc1`, the figure is 853 s.
As for `CCCn1cc(CCNS(=O)(=O)c2cccc3nsnc23)c2cccnc21`, the figure is 791 s.
Regarding `CC1=NS(=O)(=O)N(Cc2ccccc2)C=C1C(=O)OCc1nc(-c2ccc(F)cc2)no1`, the RP-LC retention time stood at 1140 s.
Take `COc1ccc(-c2c(C(=O)NCCN3CCN(C)CC3)nc3ccccn23)cc1`: the RP-LC retention time was determined as 574 s.
As for `COc1ccc(-c2nc3cc(C)ccn3c2NC(=O)c2ccc(F)cc2)cc1OC`, the figure is 597 s; as for `COc1ccc(OC)c(NC(=O)Cn2c(=O)c(CCC(=O)NCC(C)C)nc3ccccc32)c1`, 798 s.
In turn, `CN(CC1CCOC1)C(=O)c1ccc(F)cc1Cl` (centres undefined) yielded an RP-LC retention time of 704 s.
Compound `CCOC(=O)c1noc2nc(C)nc(NCCCN3CCN(c4ccccc4)CC3)c12` yielded an RP-LC retention time of 668 s.
Regarding `COc1ccc(NC(=O)c2cn(-c3cc(N(C)C)ncn3)cn2)cc1F`, the RP-LC retention time was 782 s.
As for `O=C(NC1CCCCC1)C1CCCN(S(=O)(=O)c2cc(-c3noc(C4CCCC4)n3)cs2)C1` (centres undefined), the RP-LC retention time was determined as 1220 s.
As for `Cn1c(=O)n(CCN2CCOCC2)c(=O)c2c1nc1n2CCCN1c1ccccc1`, the figure is 615 s.
As for `CCn1cnc2ccc(-c3noc(COc4cccc(C)c4)n3)cc21`, the figure is 808 s; as for `Cc1ccccc1CN1C(=O)CN(S(=O)(=O)c2ccccc2)CC1(C)C(=O)NCc1ccccc1` (centres undefined), 905 s.
As for `CN(CC(=O)N1CCN(C2CCCC2)CC1)S(=O)(=O)c1ccc2c(c1)CCCC(=O)N2`, the figure is 588 s.
On to `O=C(c1ccccc1Br)N(Cc1cccc(Cl)c1)C1CCS(=O)(=O)C1` (centres undefined), for which the RP-LC retention time was found to be 846 s.
As for `CN(C)C[C@@H]1CN(C2CCOCC2)C[C@H]1NS(=O)(=O)Cc1cccc(F)c1`, the figure is 553 s; as for `Cc1ccc2oc(C(=O)Nc3nccs3)c(C)c2c1`, 942 s; as for `O=C(Cn1c(=O)c2cc(C3CC3)nn2c2ncccc21)NCc1cccs1`, 711 s.
Take `Cc1nc(-c2ccc(NC(=O)c3ccc([N+](=O)[O-])cc3)cc2)cs1`: the RP-LC retention time turned out to be 855 s.
As for `Cc1ccc(-c2nnc(-c3cccc(S(=O)(=O)NCC4CCCO4)c3)o2)cc1` (centres undefined), the figure is 918 s.
As for `O=C(Nc1nnc(-c2ccc(Br)o2)o1)c1ccc(F)cc1F`, the figure is 740 s.
